# Article PMC11500415, “Chemical inhibition of stomatal differentiation by perturbation of the master-regulatory bHLH heterodimer via an ACT-Like domain” (Nature Communications, 2024)
# Values joined by “and” are separate entries in the source; they are usually repeats but may differ in a detail not shown here. Identical values can stand only once. Like-named read-outs stand apart in the source and are kept apart here.
# Target: T1, MUTE_ACTLE162A_E163A (Arabidopsis thaliana, UniProt Q9M8K6, E162A/E163A)
# T1 construct: MUTE-ACTL (114-202); made in house; host or cells: E. coli BL21
# Assay: BLI direct binding
# Set-up: species or system A. thaliana
# Conditions: for koff: read-out: kdis(1/s), MUTE_E162A_E163A on Anti-GST sensor
# Text: A. thaliana SCRM (1-494), ΔNSPCH (98-364), MUTE (1-202), ΔNFAMA (190-414), MUTEΔC (1-114), MUTER133A_R134A, MUTEE162A_E163A, MUTER133A_R134A_E162A_E163A, SCRM-ACTL (405-494), MUTE-ACTL (114-202), SPCH-ACTL (285-364), FAMA-ACTL (306-414), MUTE_ACTLR133A_R134A, MUTE_ACTLE162A_E163A, MUTE_ACTLR133A_R134A_E162A_E163A were cloned into pGEX-4T-1 vector with an N-terminal GST tag and a thrombin cleavage sequence. For protein expression, the constructs were transformed into E. coli strain BL21. For each transformant, a single colony was selected and incubated in 10 ml LB liquid media. The overnight-incubated E. coli suspensions were transferred to 1 L LB medium and incubated at 37 °C for around 2 h until the OD600 reached 0.4–0.6. The isopropyl β-D-1-thiogalactopyranoside ([…] of final concentration) was added to the cultures and the strains were incubated at 22 °C for a further 18 h. GST-fused proteins were purified using glutathione agarose resin. The soluble portion of the cell lysate was loaded onto a GST-Sepharose column. Nonspecifically bound proteins were removed by washing the column with 20 mM Tris pH 8.0, 200 mM NaCl. The bound GST-fused protein was eluted with 10 mm glutathione and 20 mM Tris pH 8.0, 200 mM NaCl. The GST-fused proteins were exchanged with phosphate-buffered saline buffer, and then the solution was treated with 50 μg of thrombin for 10–12 h at 16 ^οC. The GST portion of the protein was cleaved during thrombin digestion, and then the whole solution was reloaded onto the glutathione S-transferase column to obtain pure protein. The purified proteins were further purified by gel filtration on a Superdex-200 (GE) column using fast protein liquid chromatography and phosphate buffer (pH 7.2) as the eluent. The purity of the protein was checked by SDS-PAGE. For detailed lists of oligo DNA and plasmid information, see Supplementary Tables 5, 6, respectively.
# The binding affinities of SCRM to MUTE / MUTER133A_R134A / MUTEE162A_E163A / MUTER133A_R134A_E162A_E163A in presence and absence of Stomidazolone (3) and its analogues (AYSJ1059 (5) and AYSJ1061 (6)), and Stomidazolone / AYSJ1059 / AYSJ1061 interactions with GST-tagged SCRM, MUTE, SPCH, FAMA, MUTE ΔACTL, MUTE_ACTL, SCRM_ACTL, SPCH_ACTL and FAMA_ACTL, MUTER133A_134A, MUTEE162A_E163A, MUTER133A_R134A_E162A_E163A were measured using the Octet Red96 system (ForteBio, Pall Life Sciences) following the manufacturer’s protocols. The optical probes coated with anti-GST were first loaded with 500 nM GST tagged proteins before kinetic binding analyses. The experiment was performed in 96-well plates maintained at 30 °C. Each well was loaded with 200 μL reaction volume for the experiment. The binding buffer used in these experiments contained 1× PBS supplemented with 2% DMSO, 0.02% Tween20. The concentrations of the Stomidazolone as the analyte in the binding buffer were 100, 50, 25, 12.5, 6.25, 3.12, and 1.56 μM. There was no binding of the analytes to the unloaded probes as shown by the control wells. Binding kinetics to all seven concentrations of the analytes were measured simultaneously using default parameters on the instrument. The data were analyzed using the Octet data analysis software. The association and dissociation curves were fit with the 1:1 homogeneous ligand model. The kobs (observed rate constant) values were used to calculate Kd, with steady-state analysis of the direct binding. See Supplementary Table 3 for details.
# [1] = MUTE_E162A_E163A on Anti-GST sensor, Stomid 3.12 µM, rep-1, rep-2
# [2] = MUTE_E162A_E163A on Anti-GST sensor, Stomid 6.25 µM, rep-1, rep-2
# [3] = MUTE_E162A_E163A on Anti-GST sensor, Stomid 12.5 µM, rep-1, rep-2
# [4] = MUTE_E162A_E163A on Anti-GST sensor, Stomid 25 µM, rep-1, rep-2
# [5] = MUTE_E162A_E163A on Anti-GST sensor, Stomid 50 µM, rep-1, rep-2
# [6] = MUTE_E162A_E163A on Anti-GST sensor, Stomid 100 µM, rep-1, rep-2
# [7] = MUTE_E162A_E163A on Anti-GST sensor, Stomid 200 µM, rep-1, rep-2
# T1 sequence (Q9M8K6 114-202 E162A/E163A): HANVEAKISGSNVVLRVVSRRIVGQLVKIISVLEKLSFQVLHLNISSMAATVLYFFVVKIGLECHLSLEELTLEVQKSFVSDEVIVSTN
smiles,measurement,setting,value
O=C1C(c2ccccc2)=NC(NS(=O)(=O)c2ccccc2)(c2ccccc2)N1S(=O)(=O)c1ccccc1 (stereo not drawn) [Stomidazolone],Kd,"BLI steady state, MUTE_ACTL E162A_E163A, read-out: KD (SS)",125 ± 12 µM
same,Kd,"BLI, MUTE_ACTL E162A_E163A, read-out: KD",88.3 ± 5.5 µM
same,RMax,[1],0.032 and 0.02
same,Response,[1],0.0312 and 0.0195
same,Kd,"MUTE_E162A_E163A on Anti-GST sensor, Stomid 3.12 µM, rep-1, rep-2, read-out: KD",86.2 µM
same,RMax,[2],0.055 and 0.045
same,Req/Rmax(%),[2],86.2% and 99.9%
same,Response,[2],0.053 and 0.041
same,kdis,[2],0.25 s⁻¹
same,kon,[2],2770 M⁻¹ s⁻¹
same,Kd,"MUTE_E162A_E163A on Anti-GST sensor, Stomid 6.25 µM, rep-1, rep-2, read-out: KD",84.8 µM and 90.2 µM
same,RMax,[3],0.07 and 0.08
same,Req/Rmax(%),[3],86.2% and 95.1%
same,Response,[3],0.065 and 0.078
same,kobs,[3],0.00218 s⁻¹ and 0.00344 s⁻¹
same,kon,[3],2790 M⁻¹ s⁻¹
same,Kd,"MUTE_E162A_E163A on Anti-GST sensor, Stomid 12.5 µM, rep-1, rep-2, read-out: KD",85.4 µM and 87.9 µM
same,Req/Rmax(%),[4],83.8% and 88.2%
same,kdis,[4],0.251 s⁻¹
same,kobs,[4],0.0028 s⁻¹ and 0.00329 s⁻¹
same,kon,[4],2870 M⁻¹ s⁻¹
same,Kd,"MUTE_E162A_E163A on Anti-GST sensor, Stomid 25 µM, rep-1, rep-2, read-out: KD",87.7 µM and 87.3 µM
same,RMax,[5],0.145 and 0.18
same,Req/Rmax(%),[5],89.7% and 82.4%
same,Response,[5],0.141 and 0.171
same,kobs,[5],0.00431 s⁻¹ and 0.00272 s⁻¹
same,kon,[5],2770 M⁻¹ s⁻¹
same,Kd,"MUTE_E162A_E163A on Anti-GST sensor, Stomid 50 µM, rep-1, rep-2, read-out: KD",87.7 µM and 89 µM
same,RMax,[6],0.256 and 0.23
same,Req/Rmax(%),[6],98.6% and 97.1%
same,Response,[6],0.254 and 0.2296
same,kdis,[6],0.248 s⁻¹
same,kobs,[6],0.0129 s⁻¹ and 0.00842 s⁻¹
same,kon,[6],2860 M⁻¹ s⁻¹
same,Kd,"MUTE_E162A_E163A on Anti-GST sensor, Stomid 100 µM, rep-1, rep-2, read-out: KD",88.7 µM and 86.6 µM
same,RMax,[7],0.275 and 0.3
same,Req/Rmax(%),[7],100%
same,Response,[7],0.272 and 0.292
same,kobs,[7],0.0343 s⁻¹
same,Kd,"MUTE_E162A_E163A on Anti-GST sensor, Stomid 200 µM, rep-1, rep-2, read-out: KD",89.2 µM
same,koff,"Stomid 3.12 µM, rep-1, rep-2",0.243 s⁻¹
same,koff,"Stomid 6.25 µM, rep-1, rep-2",0.242 s⁻¹
same,koff,"Stomid 12.5 µM, rep-1, rep-2",0.245 s⁻¹
same,koff,"Stomid 25 µM, rep-1, rep-2",0.246 s⁻¹
same,koff,"Stomid 50 µM, rep-1, rep-2",0.246 s⁻¹
same,koff,"Stomid 100 µM, rep-1, rep-2",0.247 s⁻¹
same,koff,"Stomid 200 µM, rep-1, rep-2",0.25 s⁻¹
same,kon,"read-out: kon(1/Ms), MUTE_E162A_E163A on Anti-GST sensor, Stomid 3.12 µM, rep-1, rep-2",2830 M⁻¹ s⁻¹
same,kon,"read-out: kon(1/Ms), MUTE_E162A_E163A on Anti-GST sensor, Stomid 6.25 µM, rep-1, rep-2",2850 M⁻¹ s⁻¹
same,kon,"read-out: kon(1/Ms), MUTE_E162A_E163A on Anti-GST sensor, Stomid 12.5 µM, rep-1, rep-2",2870 M⁻¹ s⁻¹
same,kon,"read-out: kon(1/Ms), MUTE_E162A_E163A on Anti-GST sensor, Stomid 25 µM, rep-1, rep-2",2800 M⁻¹ s⁻¹
same,kon,"read-out: kon(1/Ms), MUTE_E162A_E163A on Anti-GST sensor, Stomid 50 µM, rep-1, rep-2",2810 M⁻¹ s⁻¹
same,kon,"read-out: kon(1/Ms), MUTE_E162A_E163A on Anti-GST sensor, Stomid 100 µM, rep-1, rep-2",2780 M⁻¹ s⁻¹
same,kon,"read-out: kon(1/Ms), MUTE_E162A_E163A on Anti-GST sensor, Stomid 200 µM, rep-1, rep-2",2800 M⁻¹ s⁻¹
